Consider three molecules from patent publication US20020128320A1, “Method of administering calcium citrate” (UniServices Ltd., priority 2001, published 2002).

The conditions of experiment [1]: 13 men, cited from earlier work.
The conditions of experiment [2]: 193 subjects; cited from earlier work.
The conditions of experiment [3]: 6 weeks; 56 subjects; cited from earlier work.
A short description of experiment [4]: Randomized placebo-controlled trial of calcium citrate: fasting serum lipids. The format is in vivo, normal postmenopausal women. As for the experimental part:
(§1) A randomized controlled trial of calcium supplementation in 223 normal postmenopausal women aged 55 years or older. Women receiving therapy for osteoporosis were ineligible, as were those with any other major ongoing disease, including serum creatine greater than 0.2 mmol/L, untreated hypo- or hyperthyroidism, liver disease, serum 25-hydroxyvitamin D less than 10 μg/L, malignancy or metabolic bone disease. None of the subjects had been regular users of hormone replacement therapy, anabolic steroids, glucocorticoids or bisphosphonates in the previous 1 year. Lumbar spine bone density (Lunar Expert, Madison, Wis.) was not below the age-appropriate normal range. In the present sub-study there was the further requirement that subjects were not receiving therapy for hyperlipidemia.
266 subjects were assessed for eligibility for the sub-study, and 223 entered the study, of which 111 women were randomized to calcium and 112 to placebo. 20 women in the calcium group discontinued study medication as did 26 in the placebo group. […] The study was approved by the local ethics committee, and each subject gave written, informed consent. There were not significant differences between groups.
Treatments were allocated randomly using a minimization algorithm balancing for current thiazide use, age and the occurrence of fractures resulting from minimal trauma after the age of 40 years. Subjects received 1 gram of elemental calcium daily as the citrate (Citracal, Mission Pharmacal, San Antonio Tex.) or identical placebo. They were asked to take two tablets (each containing 200 mg elemental calcium) before breakfast and three tablets in the evening. Calcium intake and physical activity were assessed using validated questionnaires (Angus et al., 1989; Wilson et al., 1986). Compliance was assessed by tablet counts.
Fasting total cholesterol, high-density lipoprotein cholesterol and triglycerides were measured in serum at baseline, 2 months, 6 months, and one year, using a Roche-Hitachi 747 autoanalyzer (Mannherim, Germany). The cholesterol assay used cholesterol oxidase, high-density lipoprotein measurement was by a direct non-precipitation method using PEG-modified enzymes (cholesterol oxidase), and triglycerides were assayed using a glycerol kinase/oxidase method after initial hydrolysis using lipoprotein lipase. Low-density lipoprotein was calculated using the Friedewald formula:
LDL=TC−HDL−(0.45×triglyceride)
Data were analyzed on an intention-to-treat basis, using a fixed effects mixed models approach to repeated measures using the MIXED procedure of SAS (SAS Institute, Cary, N.C.). Significant main and interaction effects were explained using the method of Tukey. In complimentary analyses, the change from baseline for each continuous normal dependant variable was compared between treatment and placebo arms using Student's t-test for independent groups. A 5% significance level was maintained throughout these analyses.

Experiment [5] can be described thus: Randomized placebo-controlled trial of calcium citrate: body weight. It counts as in vivo, normal postmenopausal women. The method, then: as §1, with “In the present sub-study there was the further requirement that subjects were not receiving therapy for hyperlipidemia.” left out
266 subjects were assessed for eligibility for the sub-study, and 223 entered the study, of which 111 women were randomized to calcium and 112 to placebo. […]
Treatments were allocated randomly using a minimization algorithm balancing for current thiazide use, age and the occurrence of fractures resulting from minimal trauma after the age of 40 years. […] Calcium intake and physical activity were assessed using validated questionnaires (Angus et al., 1989; Wilson et al., 1986). Compliance was assessed by tablet counts.
Data were analyzed on an intention-to-treat basis, using a fixed effects mixed models approach to repeated measures using the MIXED procedure of SAS (SAS Institute, Cary, N.C.). […]

[6] abbreviates: intention-to-treat analysis, 12 months, 1 g elemental calcium daily.

Entries after “also recorded” stand apart in the source; their conditions may differ. Where two headings read alike, the source gives them in different places.

Consider calcium citrate malate, for which, in experiment [1] (food and tablets), the “increase in saturated fat excretion” value is on record as 7%, the “low-density lipoprotein levels decrease” value is listed as 11% and the “reduction in plasma cholesterol” value was 6%. For the same molecule, the “high-density lipoprotein levels change” value in experiment [1] (increased in some subjects and decreased in others) is listed as “insignificant”.
In the case of `O=C([O-])[O-].[Ca+2]` [calcium carbonate], in experiment [2], the “changes in total cholesterol, high-density lipoprotein level, and blood pressure” value is given as “statistically insignificant changes”. The “change in total cholesterol” value in experiment [3] is given as “statistically insignificant decrease”.
As for `O=C([O-])CC(O)(CC(=O)[O-])C(=O)[O-].O=C([O-])CC(O)(CC(=O)[O-])C(=O)[O-].[Ca+2].[Ca+2].[Ca+2]` [calcium citrate], the “high-density lipoprotein/low-density lipoprotein ratio increase (summary statement)” value in experiment [4] (daily dose about 1 gram elemental calcium) is listed as ~20%. Further, the “predicted reduction of cardiovascular event rates” value in experiment [4] (extrapolated from lipid effects by comparison with statin trial data) is given as 20-30%. In addition, the “high-density lipoprotein/low-density lipoprotein ratio increase” value in experiment [4] (setting [6]) turned out to be 17.7%; in experiment [4] (protocol analysis excluding subjects who commenced a statin or fibrate, FIG. 2B) it was 17%. Moreover, the “total cholesterol fall (non-significant)” value in experiment [4] (setting [6]) is listed as 3.7%. Besides, the “high-density lipoprotein increase above baseline” value in experiment [4] (intention-to-treat analysis, 12 months, 1 g elemental calcium daily, oral) turned out to be 7.3%. For the same molecule, the low-density lipoprotein decline in experiment [4] (intention-to-treat analysis, 12 months, 1 g elemental calcium daily, LDL calculated by Friedewald formula) is reported as 7.8%. Besides, the “ratio of total cholesterol/high-density lipoprotein decline” value in experiment [4] (intention-to-treat analysis, one year, 1 g elemental calcium daily) worked out at 9.3%. Moreover, the “treatment effect on triglycerides” value in experiment [4] (intention-to-treat analysis, versus placebo (P=0.48)) is “no significant treatment effect”; in experiment [4] (protocol analysis excluding statin/fibrate users, FIG. 3), “no significant treatment effect”. In experiment [4] (protocol analysis excluding statin/fibrate users, FIG. 1A, P=0.05), the “change in high-density lipoprotein cholesterol versus placebo” value was “increase in high-density lipoprotein; also recorded: significant treatment effects”. Further, the “change in low-density lipoprotein cholesterol versus placebo” value in experiment [4] (protocol analysis excluding statin/fibrate users, FIG. 1B, P=0.04) was “declined; also recorded: significant treatment effects”. Moreover, the “change in total cholesterol” value in experiment [4] (protocol analysis excluding statin/fibrate users, FIG. 2A) is on record as “did not change significantly”. In experiment [4] (protocol analysis excluding subjects who commenced a statin or fibrate), the “total cholesterol/high-density lipoprotein ratio decrease” value is 9.6%. Also, the “body weight decrease (mean ±SE)” value in experiment [5] (intention-to-treat analysis, 1 g elemental calcium daily) is 289 ± 193 g. Also, in experiment [5] (versus placebo (P=0.54)), the “between-groups effect on body weight” value is reported as “no between-groups effect on body weight”.
